In brackets after ≈: the same amount, converted by molar mass.
How the values were obtained:
Fusarium graminearum [1] = assay: Antifungal activity against Fusarium graminearum infected in wheat plant assessed as contamination of wheat heads and kernels with deoxynivalenol at 2.8 ml/L (reference value: 1.2 ppm); format: functional
Fusarium graminearum [2] = assay: Antifungal activity against Fusarium graminearum infected in wheat plant assessed as contamination of wheat heads and kernels with deoxynivalenol at 5.5 ml/L (reference value: 1.2 ppm); format: functional
Fusarium graminearum [3] = assay: Antifungal activity against Fusarium graminearum by microbroth dilution assay; format: functional
Fusarium graminearum [4] = assay: Antifungal activity against Fusarium graminearum after 12 to 18 hrs; format: functional
Aspergillus flavus = assay: Antifungal activity against Aspergillus flavus after 12 to 18 hrs; format: functional
Escherichia coli [5] = assay: Antibacterial activity against Escherichia coli ATCC 25922 after 12 to 18 hrs; format: functional
Staphylococcus aureus [6] = assay: Antibacterial activity against Staphylococcus aureus ATCC 25923 after 12 to 18 hrs; format: functional
Enterococcus faecalis = assay: Antibacterial activity against Enterococcus faecalis ATCC 29212 by microbroth dilution assay; format: functional
Fusarium oxysporum = assay: Antifungal activity against Fusarium oxysporum by microbroth dilution assay; format: functional
Globisporangium ultimum = assay: Antifungal activity against Pythium ultimum by microbroth dilution assay; format: functional
Candida albicans = assay: Antifungal activity against Candida albicans by microbroth dilution assay; format: functional
Klebsiella pneumoniae [7] = assay: Antibacterial activity against Klebsiella pneumoniae […] by microbroth dilution assay; format: functional
Rhodotorula mucilaginosa = assay: Antifungal activity against Rhodotorula pilimanae by microbroth dilution assay; format: functional
Ulocladium = assay: Antifungal activity against Ulocladium spp. by microbroth dilution assay; format: functional; details: Alternaria sect. Ulocladium
Klebsiella pneumoniae [8] = assay: Antibacterial activity against Klebsiella pneumoniae ATCC 700603 by microbroth dilution assay; format: functional
Escherichia coli [9] = assay: Antibacterial activity against Escherichia coli TG1 by microbroth dilution assay; format: functional
[10] = Hemolytic activity in sheep RBC relative to control; format: ADME, cell-based, Ovis aries, Erythrocyte; details: sheep red blood cells (erythrocytes), read-out: Activity
Phytophthora nicotianae = assay: Antifungal activity against Phytophthora parasitica by microbroth dilution assay; format: functional
Saccharomyces cerevisiae = assay: Antifungal activity against Saccharomyces cerevisiae W303 by microbroth dilution assay; format: functional
Curvularia brachyspora = assay: Antifungal activity against Curvularia brachyspora by microbroth dilution assay; format: functional
Phoma = assay: Antifungal activity against Phoma spp. by microbroth dilution assay; format: functional
[11] = system: Cladosporium cladosporioides; assay: Antifungal activity against Cladosporium cladosporioides by microbroth dilution assay; format: functional
Staphylococcus aureus [12] = assay: Antibacterial activity against Staphylococcus aureus ATCC 25923 by microbroth dilution assay; format: functional
[13] = system: Globisporangium irregulare; assay: Antifungal activity against Pythium irregulare by microbroth dilution assay; format: functional
Botrytis cinerea = assay: Antifungal activity against Bortrytis cinerea by microbroth dilution assay; format: functional
Pseudomonas aeruginosa = assay: Antibacterial activity against Pseudomonas aeruginosa ATCC 27853 by microbroth dilution assay; format: functional
Rhizopus stolonifer = assay: Antifungal activity against Rhizopus stolonifer by microbroth dilution assay; format: functional

OC(Cc1ccccc1Cl)(Cn1nc[nH]c1=S)C1(Cl)CC1 (configuration not stated) [PROTHIOCONAZOLE] gave an Activity (Fusarium graminearum [1]) of 1.1 ppm and an Activity (Fusarium graminearum [2]) of 0.7 ppm.

For CCCCCCCCO[C@@H]1[C@@H](N)[C@@H](O[C@H]2[C@H](O)[C@@H](O[C@H]3O[C@H](CO)[C@@H](O)[C@H](O)[C@H]3O)[C@H](N)C[C@@H]2N)O[C@H](CN)[C@H]1O, the MIC (Fusarium graminearum [3]) was > 500 µg/mL.

Work on CCCCCCCOC[C@H]1O[C@H](O[C@@H]2[C@@H](O)[C@H](O[C@H]3O[C@H](CN)[C@@H](O)[C@H](O)[C@H]3O)[C@@H](N)C[C@H]2N)[C@H](O)[C@@H](N)[C@@H]1OCCCCCCC yielded an MIC (Fusarium graminearum [4]) of 15.6 µg/mL (≈ 22.9 µM), an MIC (Aspergillus flavus) of 500 µg/mL (≈ 734 µM) and an MIC (Escherichia coli [5]) of 125 µg/mL (≈ 184 µM). It also gave an MIC (Staphylococcus aureus [6]) of 125 µg/mL (≈ 184 µM).

CCCCCCCCO[C@H]1[C@H](O)[C@@H](O)[C@@H](O[C@@H]2[C@@H](O)[C@H](O[C@H]3O[C@H](CN)[C@@H](O)[C@H](O)[C@H]3N)[C@@H](N)C[C@H]2N)O[C@@H]1C gave an MIC (Enterococcus faecalis) of 125 to 250 µg/mL (≈ 215 to 431 µM), an MIC (Fusarium oxysporum) of 7.8 µg/mL (≈ 13.4 µM) and an MIC (Globisporangium ultimum) of 15.6 µg/mL (≈ 26.9 µM). The MIC (Candida albicans) was 31.3 µg/mL (≈ 53.9 µM), the MIC (Klebsiella pneumoniae [7]) was 250 µg/mL (≈ 431 µM) and the MIC (Rhodotorula mucilaginosa) was 7.8 µg/mL (≈ 13.4 µM). It also gave an MIC (Ulocladium) of 7.8 µg/mL (≈ 13.4 µM), an MIC (Klebsiella pneumoniae [8]) of 250 µg/mL (≈ 431 µM) and an MIC (Escherichia coli [9]) of 125 to 250 µg/mL (≈ 215 to 431 µM). The hemolysis [10] was < 20%, the MIC (Phytophthora nicotianae) was 15.6 µg/mL (≈ 26.9 µM) and the MIC (Saccharomyces cerevisiae) was 31.3 µg/mL (≈ 53.9 µM). It also gave an MIC (Curvularia brachyspora) of 31.3 µg/mL (≈ 53.9 µM), an MIC (Phoma) of 31.3 µg/mL (≈ 53.9 µM) and an MIC (Fusarium graminearum [3]) of 7.8 µg/mL (≈ 13.4 µM). The MIC [11] was 31.3 µg/mL (≈ 53.9 µM), the MIC (Staphylococcus aureus [12]) was 250 µg/mL (≈ 431 µM) and the MIC [13] was 15.6 µg/mL (≈ 26.9 µM). The MIC (Botrytis cinerea) was 31.3 µg/mL (≈ 53.9 µM), the MIC (Pseudomonas aeruginosa) was 250 µg/mL (≈ 431 µM) and the MIC (Rhizopus stolonifer) was 31.3 µg/mL (≈ 53.9 µM).

For NC[C@H]1O[C@H](O[C@H]2[C@H](O)[C@@H](O[C@H]3O[C@H](CO)[C@@H](O)[C@H](N)[C@H]3O)[C@H](N)C[C@@H]2N)[C@H](N)[C@@H](O)[C@@H]1O [BEKANAMYCIN], the MIC (Enterococcus faecalis) was < 0.98 µg/mL, the MIC (Fusarium oxysporum) was > 250 µg/mL and the MIC (Candida albicans) was > 250 µg/mL. For the same compound, the MIC (Klebsiella pneumoniae [7]) was 1.95 µg/mL (≈ 4.03 µM), the MIC (Rhodotorula mucilaginosa) was > 250 µg/mL and the MIC (Klebsiella pneumoniae [8]) was 1.95 µg/mL (≈ 4.03 µM). For the same compound, the MIC (Escherichia coli [9]) was 1.95 µg/mL (≈ 4.03 µM), the MIC (Saccharomyces cerevisiae) was > 250 µg/mL and the MIC (Fusarium graminearum [3]) was > 250 µg/mL. For the same compound, the MIC (Staphylococcus aureus [12]) was < 0.98 µg/mL and the MIC (Pseudomonas aeruginosa) was 1.95 µg/mL (≈ 4.03 µM).

CCCCCCOC[C@@H]1O[C@@H](O[C@@H]2[C@@H](O)[C@H](O[C@@H]3O[C@@H](CN)[C@H](O)[C@@H](O)[C@@H]3N)[C@@H](N)C[C@H]2N)[C@@H](O)[C@H](O)[C@H]1O (stereo in doubt) gave an MIC (Fusarium graminearum [3]) of 125 µg/mL (≈ 220 µM).

CCCCCCCCOC[C@@H]1O[C@@H](O[C@@H]2[C@@H](O)[C@H](O[C@@H]3O[C@@H](CN)[C@H](O)[C@@H](O)[C@@H]3N)[C@@H](N)C[C@H]2N)[C@@H](O)[C@H](O)[C@H]1O (stereo in doubt) showed an MIC (Fusarium graminearum [3]) of 31.3 µg/mL (≈ 52.5 µM).

For CCCCCCCCO[C@H]1[C@@H](O[C@@H]2[C@@H](O)[C@H](O[C@H]3O[C@H](CN)[C@@H](O)[C@H](O)[C@H]3N)[C@@H](N)C[C@H]2N)O[C@H](CO)[C@@H](O)[C@@H]1O, the MIC (Fusarium graminearum [3]) was 20 µg/mL (≈ 33.5 µM).

With CCCCOC[C@H]1O[C@H](O[C@@H]2[C@@H](O)[C@H](O[C@H]3O[C@H](CN)[C@@H](O)[C@H](O)[C@H]3O)[C@@H](N)C[C@H]2N)[C@H](O)[C@@H](N)[C@@H]1OCCCC the MIC (Fusarium graminearum [4]) was 125 µg/mL (≈ 209 µM), the MIC (Aspergillus flavus) was > 500 µg/mL and the MIC (Escherichia coli [5]) was ≥ 250 µg/mL. The MIC (Staphylococcus aureus [6]) was ≥ 250 µg/mL.

In the case of CCCCCCCCCOC[C@H]1O[C@H](O[C@@H]2[C@@H](O)[C@H](O[C@H]3O[C@H](CN)[C@@H](O)[C@H](O)[C@H]3O)[C@@H](N)C[C@H]2N)[C@H](O)[C@@H](N)[C@@H]1OCCCCCCCCC, the MIC (Fusarium graminearum [4]) is reported as 125 µg/mL (≈ 170 µM), the MIC (Aspergillus flavus) is reported as 500 µg/mL (≈ 678 µM) and the MIC (Escherichia coli [5]) is reported as 16 µg/mL (≈ 21.7 µM). For the same compound, the MIC (Staphylococcus aureus [6]) was 8 µg/mL (≈ 10.9 µM).

With CCCCCCCCO[C@@H]1[C@@H](O[C@H]2O[C@H](CO)[C@@H](O)[C@H](O)[C@H]2O)[C@H](N)C[C@H](N)[C@H]1O[C@H]1O[C@H](CN)[C@@H](O)[C@H](O)[C@H]1N the MIC (Fusarium graminearum [3]) was > 500 µg/mL.

Compound CCCCCCCCO[C@@H]1[C@@H](O)[C@H](O)[C@H](O[C@H]2[C@H](O)[C@@H](O[C@@H]3O[C@@H](CN)[C@H](O)[C@@H](O)[C@@H]3N)[C@H](N)C[C@@H]2N)O[C@H]1CO (single isomer, unassigned) has an MIC (Fusarium graminearum [3]) of 7.8 µg/mL (≈ 13.1 µM).
